Laboratory results taken from EP1818052A1 (Acacia Pharma Limited, priority 2004, dated 2006).
“And” between values parts separate entries of the source, which are not always exact repeats. Equal entries are not always repeated. Where two headings read alike, the source gives them in different places.

Key:
[1] = test system: tibialis muscles previously injected with bupivacain; assay: Muscular damage by bupivacain: tibialis muscle weight; type: in vivo; settings: rats injected with bupivacain (0.5%) only (C+B)
Excerpt: Muscular regeneration is a process that implies satellite cells activation, muscle precursors cells that lie adjacent to the skeletal muscle fibers. The muscle was damaged by injecting bupivacain intramuscularly (0.5%). This compound, after muscle damage, stimulates muscular regeneration.
Muscle weights are expressed as mg/100 g of initial body weight. Results are mean ± SEM for the number of animals indicated in parentheses.

Pax-7 and myogenin = assay: Real time PCR of satellite cell activation markers in tibialis muscle after bupivacain damage; type: in vivo, rats; settings: bupivacain (0.5%) only (C + B)
Excerpt: PAx-7 and myogenin. Results are mean ± SEM for the number of animals indicated in parentheses.

isolated EDL muscles [2] = assay: Protein synthesis rate in incubated isolated EDL muscles; type: cell-based, rats; settings: for Rate of protein synthesis: EDL muscles from control rats, 10^-4 M added to incubation medium; for increase of the rate of protein synthesis: incubated rat EDL muscles, 10^-4 M in medium
Procedure: (§1) The dissection and isolation of the EDL muscles was carried out under ketamine/xylazine mixture anesthesia. […] Such muscles are able to maintain normal ATP and phosphocreatine concentrations during a 3 hours incubation period. The muscles were incubated in a shaking-thermostatized water bath at 35 °C for 3 hours in 2 ml of Krebs-Henseleit physiological saline pH 7.4, containing 5 mM glucose and 20 mM HEPES. After the addition of the muscles to the vials, the incubation started at a shaking rate of 45 cycles/min.
Synthetic rates are expressed as nmols of [^14C]phenylalanine incorporated per g and 30 min. […]

isolated EDL muscles [3] = assay: Proteolytic rate (tyrosine release) in incubated isolated EDL muscles; type: cell-based, rats; settings: for Proteolytic rate: EDL muscles from control rats, 10^-4 M added to incubation medium, cycloheximide 0.5 mM
Procedure: as §1
(§2) Total protein degradation by the isolated muscles was calculated as the rate of tyrosine released in the last two hours of incubation into the medium in the presence of 0.5 mM cycloheximide in order to block the reincorporation of tyrosine into tissue protein. Tyrosine was measured fluorimetrically. Statistical analysis of the data was performed by means of the Student's t test.

[4] = test system: rats bearing Yoshida AH-130 ascites hepatoma; settings: rat, in vivo
isolated EDL muscles [5] = test system: isolated EDL muscles
Procedure: as §1, §2
Rates were measured in presence of cycloheximide (0.5 mM) and are expressed as nmols/g and 2 hours. […]

[6] = test system: rats bearing Yoshida AH-130 ascites hepatoma; settings: rat, in vivo; remark: listed apart in the source
[7] = test system: rats bearing Yoshida AH-130 ascites hepatoma; settings: rat, in vivo; remark: listed apart in the source

## CCCCN1CCCCC1C(=O)Nc1c(C)cccc1C (stereo not shown) [B, bupivacain]
[1]
  weight of tibialis muscles: 265 ± 4 mg/100 g of initial body weight
Pax-7 and myogenin
  Myogenin gene expression: 142 ± 77
  Pax-7 gene expression: 105 ± 11

## CC(C)(C)NCC(O)c1cc(Cl)c(N)c(Cl)c1 (stereo not shown) [clenbuterol]
Isolated EDL muscles [2]
  Rate of protein synthesis: 9.36 ± 0.5 (9) nmols of [14C]phenylalanine in
  increase of the rate of protein synthesis: 20%
Isolated EDL muscles [3]
  Proteolytic rate: 176 ± 4.4 (8) nmols/g and 2 hours

## COc1ccc(C[C@H](C)NC[C@@H](O)c2ccc(O)c(NC=O)c2)cc1 (racemic) [formoterol]
Isolated EDL muscles [2]
  Rate of protein synthesis: 9.36 ± 0.3 (7) nmols of [14C]phenylalanine in
  increase of the rate of protein synthesis: 20%
[4]
  carcass weigth: 106 ± 1 g/100 g of initial body weight and 97 ± 1 g/100 g of initial body weight
  effect on cancer cachexia: effective at low doses
  muscle weigths: EDL: 52 ± 1 t mg/100 g of initial body weight and 51 ± 2 t mg/100 g of initial body weight
  muscle weigths: gastrocnemius: 629 ± 9 mg/100 g of initial body weight and 598 ± 16 mg/100 g of initial body weight
  muscle weigths: heart: 431 ± 5 mg/100 g of initial body weight and 417 ± 18 mg/100 g of initial body weight
  muscle weigths: soleus: 43 ± 2 mg/100 g of initial body weight and 43 ± 1 mg/100 g of initial body weight
  muscle weigths: tibialis: 210 ± 5 t mg/100 g of initial body weight and 199 ± 4 t mg/100 g of initial body weight
Isolated EDL muscles [5]; EDL muscles from rats given formoterol 2 mg/kg bw for six consecutive days, cycloheximide 0.5 mM
  Proteolytic rate: 159 ± 5 (8) nmols/g and 2 hours
Isolated EDL muscles [5]; EDL muscles from rats pre-treated for six consecutive days
  decrease of proteolytic rate: 12%
[6]
  Tumor cell number: not significantly affected
  adipose tissues weight: brown (interscapular): 278 ± 21 mg/100 g of initial body weight and 177 ± 11 † *** mg/100 g of initial body weight
  adipose tissues weight: white (dorsal): 759 ± 126 mg/100 g of initial body weight and 461 ± 49 mg/100 g of initial body weight
  brown adipose tissue weight: increase
  carcass weight: 113 ± 11 g/100 g of initial body weight and 81 ± 1 g/100 g of initial body weight
  increase in EDL weight: 32% and 16%
  increase in cardiac muscle weight: 21%
  increase in heart weight: 11%
  muscle weight: EDL: 70 ± 3 mg/100 g of initial body weight and 50 ± 1 ††† *** mg/100 g of initial body weight
  muscle weight: gastrocnemius: 859 ± 38 mg/100 g of initial body weight and 639 ± 16 mg/100 g of initial body weight
  muscle weight: heart: 520 ± 15 mg/100 g of initial body weight and 426 ± 17 † ** mg/100 g of initial body weight
  muscle weight: soleus: 55 ± 4 mg/100 g of initial body weight and 40 ± 1 mg/100 g of initial body weight
  muscle weight: tibialis: 275 ± 12 mg/100 g of initial body weight and 204 ± 4 †† *** mg/100 g of initial body weight
  trophic action on soleus: not significantly affected
  tumor cell content: 3403 ± 88 (5) millions of cells
  white adipose tissue mass: tendency towards a decrease
[7]
  efficacy against cachexia: effective against cachexia
  muscle weights: soleus: 37 ± 1 mg/100 g of initial body weight and 33 ± 2 mg/100 g of initial body weight and 37 ± 2 mg/100 g of initial body weight
Isolated EDL muscles [3]
  Proteolytic rate: 180 ± 5.6 (8) nmols/g and 2 hours
Isolated EDL muscles [3]; isolated EDL muscles, 10^-4 M in medium
  decrease of the rate of protein degradation (release of tyrosine): 20%
